Results on eleven compounds are retold here after BindingDB's records for doi:10.1021/jm070487n (Universita Degli Studi Di Bari, 2007).

In the first test the target is T1, 5-hydroxytryptamine receptor 1A (Homo sapiens, UniProt P08908).
T1 sequence (P08908 whole entry): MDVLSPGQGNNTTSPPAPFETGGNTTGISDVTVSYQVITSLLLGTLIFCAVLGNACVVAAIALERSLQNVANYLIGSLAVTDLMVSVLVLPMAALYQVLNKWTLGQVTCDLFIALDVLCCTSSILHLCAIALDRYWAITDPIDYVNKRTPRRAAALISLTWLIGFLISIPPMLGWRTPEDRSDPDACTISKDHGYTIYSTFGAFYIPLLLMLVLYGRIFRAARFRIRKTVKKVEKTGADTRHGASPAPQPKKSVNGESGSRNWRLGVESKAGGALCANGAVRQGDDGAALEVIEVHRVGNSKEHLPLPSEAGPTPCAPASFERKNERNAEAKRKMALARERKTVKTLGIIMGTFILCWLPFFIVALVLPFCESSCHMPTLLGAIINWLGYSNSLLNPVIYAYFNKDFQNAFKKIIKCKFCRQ
Nature of the test: Radioligand Labeled Binding Assay. As to the method: (§1) IC50 values for each test compound were determined from nonlinear regression analysis of data collected from ligand binding experiments. The inhibition constant (Ki) was calculated from IC50 value by the Cheng and Prusoff equation.
Broadly, the Ki is a dissociation constant, usually derived from enzyme kinetics or from competition with a known ligand. Read a high Ki as weaker binding. Turning to `CSc1ccccc1N1CCN(CCCCCC(=O)NC2CCCc3ccccc32)CC1` (configuration not stated), affinity was put at a Ki of 52.7 nM. In other words, the double-digit nanomolar range.

Compound `COc1ccccc1N1CCN(CCCCCC(=O)NC2CCCc3ccccc32)CC1` (configuration not stated) registered an inhibition constant Ki of 8.6 nM.

Take `Cc1ccccc1N1CCN(CCCCCC(=O)NC2CCCc3ccccc32)CC1` (configuration not stated): the inhibition constant Ki turned out to be 279 nM.

`CC(=O)c1ccccc1N1CCN(CCCCCC(=O)NC2CCCc3ccccc32)CC1` (configuration not stated) yielded a Ki of 3.85 nM. This Ki lies about 72-fold lower than the previous one.

Regarding `O=C(CCCCCN1CCN(c2ccccc2O)CC1)NC1CCCc2ccccc21` (configuration not stated), the Ki was 24 nM. This Ki is about 6.2-fold higher than that of the compound before.

Compound `O=C(CCCCCN1CCN(c2ccccc2)CC1)NC1CCCc2ccccc21` (configuration not stated) registered a Ki of 128 nM.

In turn, `O=C(CCCCCN1CCN(c2ccccc2Cl)CC1)NC1CCCc2ccccc21` (configuration not stated) had an inhibition constant (Ki) of 96 nM.

The compound `CS(=O)(=O)c1ccccc1N1CCN(CCCCCC(=O)NC2CCCc3ccccc32)CC1` (configuration not stated) displayed an inhibitory constant (Ki) of 3120 nM.

In the case of `NC(=O)c1ccccc1N1CCN(CCCCCC(=O)NC2CCCc3ccccc32)CC1` (configuration not stated) [2-{4-[5-(1,2,3,4-tetrahydronaphthalen-1-ylcarbamoyl)pentyl]piperazin-1-yl}benzamide], the inhibition constant Ki is 494 nM.

Compound `N#Cc1ccccc1N1CCN(CCCCCC(=O)NC2CCCc3ccccc32)CC1` (configuration not stated) [6-[4-(2-cyanophenyl)piperazin-1-yl]-N-(1,2,3,4-tetrahydronaphthalen-1-yl)hexanamide] displayed a Ki of 16.6 nM.

Consider `O=C(CCCCCN1CCN(c2ccccc2[N+](=O)[O-])CC1)NC1CCCc2ccccc21` (configuration not stated) [6-[4-(2-nitrophenyl)piperazin-1-yl]-N-(1,2,3,4-tetrahydronaphthalen-1-yl)hexanamide], for which the Ki is 183 nM. This Ki lies about 11-fold higher than the previous one.

In a further test the target is 5-hydroxytryptamine receptor 2A (Rattus norvegicus, UniProt P14842). Nature of the test: Radioligand Labeled Binding Assay. As to the method: as §1
Sequence of 5-hydroxytryptamine receptor 2A (P14842 whole entry): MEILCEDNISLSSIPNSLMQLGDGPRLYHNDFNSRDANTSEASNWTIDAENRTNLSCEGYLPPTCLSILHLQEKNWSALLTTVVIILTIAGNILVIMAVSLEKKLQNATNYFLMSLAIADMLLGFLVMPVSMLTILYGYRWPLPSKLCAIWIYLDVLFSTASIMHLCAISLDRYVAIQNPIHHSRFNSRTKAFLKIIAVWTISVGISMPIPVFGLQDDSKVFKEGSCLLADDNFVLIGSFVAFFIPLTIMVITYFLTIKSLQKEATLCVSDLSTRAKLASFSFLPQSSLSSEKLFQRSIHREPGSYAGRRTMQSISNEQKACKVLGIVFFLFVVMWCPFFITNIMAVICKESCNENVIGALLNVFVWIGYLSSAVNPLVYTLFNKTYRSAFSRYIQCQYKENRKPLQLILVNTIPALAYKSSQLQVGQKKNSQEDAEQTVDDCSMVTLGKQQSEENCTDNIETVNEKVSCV
In turn, `COc1ccccc1N1CCN(CCCCCC(=O)NC2CCCc3ccccc32)CC1` (configuration not stated) displayed an inhibition constant (Ki) of 1260 nM. In other words, the single-digit micromolar range.
